Legend:
[1] = system: Hepatitis B virus; test: Antiviral activity against HBV assessed as inhibition of viral surface antigen secretion; type: functional, organism-based
[2] = Cytotoxicity against human HepG2(2.2.15) cells; type: cell-based
[3] = system: Hepatitis B virus; test: Antiviral activity against HBV assessed as inhibition of viral early antigen secretion; type: functional, organism-based

Row | Compound | IC50 [1] | IC50 [3] | CC50 [2]
1 | CC(C)CC(=O)O[C@@H](C[C@@H](C)C1=C2C[C@H](OC(=O)CC(C)C)[C@H]3[C@@]4(C)CCC(=O)C(C)(C)[C@@H]4CC[C@]3(C)[C@@]2(C)CC1)[C@@H](OC(=O)CC(C)C)C(C)(C)O | > 1.2 mM | > 1.2 mM | > 1.2 mM
2 | C[C@H](C[C@H](OC(=O)COc1ccccc1)[C@@H](OC(=O)COc1ccccc1)C(C)(C)O)C1=C2C[C@H](OC(=O)COc3ccccc3)[C@H]3[C@@]4(C)CCC(=O)C(C)(C)[C@@H]4CC[C@]3(C)[C@@]2(C)CC1 | > 1.3 mM | > 1.3 mM | > 1.3 mM
3 | CCCCC(=O)O[C@@H](C[C@@H](C)C1=C2C[C@H](OC(=O)CCCC)[C@H]3[C@@]4(C)CCC(=O)C(C)(C)[C@@H]4CC[C@]3(C)[C@@]2(C)CC1)[C@@H](OC(=O)CCCC)C(C)(C)O | > 1.3 mM | > 1.3 mM | > 1.3 mM
4 | C[C@H](C[C@H](OC(=O)C1CCCC1)[C@@H](OC(=O)C1CCCC1)C(C)(C)O)C1=C2C[C@H](OC(=O)C3CCCC3)[C@H]3[C@@]4(C)CCC(=O)C(C)(C)[C@@H]4CC[C@]3(C)[C@@]2(C)CC1 | > 1.1 mM | > 1.1 mM | > 1.1 mM
5 | C[C@H](C[C@H](OC(=O)c1ccccc1I)[C@@H](OC(=O)c1ccccc1I)C(C)(C)O)C1=C2C[C@H](OC(=O)c3ccccc3I)[C@H]3[C@@]4(C)CCC(=O)C(C)(C)[C@@H]4CC[C@]3(C)[C@@]2(C)CC1 | > 1.5 mM | > 1.5 mM | > 1.5 mM
6 | CCC(CC)C(=O)O[C@@H](C[C@@H](C)C1=C2C[C@H](OC(=O)C(CC)CC)[C@H]3[C@@]4(C)CCC(=O)C(C)(C)[C@@H]4CC[C@]3(C)[C@@]2(C)CC1)[C@@H](OC(=O)C(CC)CC)C(C)(C)O | > 1.1 mM | > 1.1 mM | > 1.1 mM
7 | C=C(C)[C@H](OC(=O)CC(C)C)[C@H](C[C@@H](C)C1=C2C[C@H](OC(=O)CC(C)C)[C@H]3[C@@]4(C)CCC(=O)C(C)(C)[C@@H]4CC[C@]3(C)[C@@]2(C)CC1)OC(=O)CC(C)C | > 1.2 mM | > 1.2 mM | > 1.2 mM

The next lines start with results.

Row | IC50 [1] | IC50 [3] | Compound | CC50 [2]
8 | > 1 mM | > 1 mM | C[C@H](C[C@H](OC(=O)Cc1ccc([N+](=O)[O-])cc1)[C@@H](OC(=O)Cc1ccc([N+](=O)[O-])cc1)C(C)(C)O)C1=C2C[C@H](OC(=O)Cc3ccc([N+](=O)[O-])cc3)[C@H]3[C@@]4(C)CCC(=O)C(C)(C)[C@@H]4CC[C@]3(C)[C@@]2(C)CC1 | > 1 mM
9 | > 0.92 mM | > 0.92 mM | C=C(C)[C@H](OC(=O)CCCC)[C@H](C[C@@H](C)C1=C2C[C@H](OC(=O)CCCC)[C@H]3[C@@]4(C)CCC(=O)C(C)(C)[C@@H]4CC[C@]3(C)[C@@]2(C)CC1)OC(=O)CCCC | > 0.92 mM
10 | > 0.9 mM | > 0.9 mM | C/C=C/C=C/C(=O)O[C@@H](C[C@@H](C)C1=C2C[C@H](OC(=O)/C=C/C=C/C)[C@H]3[C@@]4(C)CCC(=O)C(C)(C)[C@@H]4CC[C@]3(C)[C@@]2(C)CC1)[C@@H](OC(=O)/C=C/C=C/C)C(C)(C)O | > 0.9 mM
11 | > 0.6 mM | > 0.6 mM | CCCCCCCC(=O)O[C@@H](C[C@@H](C)C1=C2C[C@H](OC(=O)CCCCCCC)[C@H]3[C@@]4(C)CCC(=O)C(C)(C)[C@@H]4CC[C@]3(C)[C@@]2(C)CC1)[C@@H](OC(=O)CCCCCCC)C(C)(C)O | > 0.6 mM
12 | > 0.9 mM | > 0.9 mM | CC(C)CCC(=O)O[C@@H](C[C@@H](C)C1=C2C[C@H](OC(=O)CCC(C)C)[C@H]3[C@@]4(C)CCC(=O)C(C)(C)[C@@H]4CC[C@]3(C)[C@@]2(C)CC1)[C@@H](OC(=O)CCC(C)C)C(C)(C)O | > 0.9 mM
13 | > 0.85 mM | > 0.85 mM | C/C=C/C(=O)O[C@@H](C[C@@H](C)C1=C2C[C@H](OC(=O)/C=C/C)[C@H]3[C@@]4(C)CCC(=O)C(C)(C)[C@@H]4CC[C@]3(C)[C@@]2(C)CC1)[C@@H](OC(=O)/C=C/C)C(C)(C)O | > 0.85 mM
